# Assay results reported in US6355690B1, “Remedy for CAG repeat expansion diseases” (Niigata University, priority 1998, dated 2002).
# Tests used:
# Format in all cases: cell-based
# [1] = test system: COS7 cells transfected with pEGFP-Q82-19; test: Nuclear fragmentation (apoptotic cell death), Hoechst 33342 staining
# Description: (§1) The COS7 cells were transfected with plasmid thus constructed. COS7 cells were seeded in Dulbecco's modified Eagle's medium (DMEM) containing 10% fetal calf serum the day before transfection at 3×10^4 per well of an 8-well chamber slide (Nunc Inc., Naperville, Ill.). The COS7 cells were transfected with 0.5 μg of plasmid DNA using the SuperFect transfection reagent (Qiagen, Hilden, Germany) according to the manufacturer's instructions.
# (§2) To investigate whether the transglutaminase reaction is involved in the formation of aggregate bodies and the induction of apoptotic cell death, the inventors cultured COS7 cells in the presence of transglutaminase inhibitors (cystamine^28, monodansyl cadaverine (MDC)^29, and putrescine^30), after transfection. For tilis purpose, truncated DRPLA proteins were expressed as fusion proteins with green fluorescence protein (GFP), which allowed the highly sensitive observation of viable cells. The inserts of pEF-BOS-FQ82-19 and pEF-BOS-FQ19-19 were transferred into pEGFP containing the coding region for GFP. The resultant plasmid DNAs (pEGFP-FQ82-19 and pEGFP-FQ19-19) were transfected into COS7 cells. The plasmid DNA was constructed as below. The segment coding for 3 histidines, the polyglutamine stretch and 19 amino acids downstream of the polyglutamine stretch of DRPLA cDNA (pDRPLAE or pDRPLAN) was amplified by PCR using a primer (5′-GGGAATTCGGATGCACCAT-[…]-3′) containing an EcoRI linker sequence and a primer (5′-[…]-3′). PCR products were digested with EcoRI and BamHI, and subcloned into the pEGFP-N1 expression vector (Clontech, Palo Alto, Calif.). The nucleotide sequences of all the constructs were confirmed using automated DNA sequencers (PE Applied Biosystems, Foster City, Calif.).
# The effects of other transglutaminase inhibitor (MDC) on the aggregate formation and apoptotic cell death were also investigated. The TUNEL assay was performed using an In Situ Cell Death Detection Kit (Boehringer Mannheim, Mannheim, Germany) according to the manufacturer's instructions. […] Quantitation was performed by analyzing 100 cells expressing the FLAG epitope. […]
# [2] = test system: COS7 cells transfected with pEGFP-Q82-19; test: Aggregate body formation in COS7 cells expressing truncated DRPLA protein with expanded polyglutamine stretch (GFP fusion)
# Description: as §1, §2
# The effects of other transglutaminase inhibitor (MDC) on the aggregate formation and apoptotic cell death were also investigated. The TUNEL assay was performed using an In Situ Cell Death Detection Kit (Boehringer Mannheim, Mannheim, Germany) according to the manufacturer's instructions. FITC-conjugated dUTP was used for the terminal deoxynucleotidyl transferase reaction. An assay for nuclear fragmentation was performed by staining cells with […] Hoechst 33342. Quantitation was performed by analyzing 100 cells expressing the FLAG epitope. Statistical analyses were performed using Student's t test.
# [3] = test system: COS7 cells transfected with pEGFP-Q19-19; test: Expression pattern of GFP fusion protein with polyglutamine stretch of normal length; conditions: 1 mM cystamine
# Description: as §1
# To investigate whether the transglutaminase reaction is involved in the formation of aggregate bodies and the induction of apoptotic cell death, the inventors cultured COS7 cells in the presence of transglutaminase inhibitors (cystamine^28, monodansyl cadaverine (MDC)^29, and putrescine^30), after transfection. For tilis purpose, truncated DRPLA proteins were expressed as fusion proteins with green fluorescence protein (GFP), which allowed the highly sensitive observation of viable cells. The inserts of pEF-BOS-FQ82-19 and pEF-BOS-FQ19-19 were transferred into pEGFP containing the coding region for GFP. The resultant plasmid DNAs (pEGFP-FQ82-19 and pEGFP-FQ19-19) were transfected into COS7 cells. The plasmid DNA was constructed as below. […]
# [4] = even at 100 µM of cystamine, various concentrations
structure (smiles),measurement,setting,value
"CN(C)c1cccc2c(S(=O)(=O)NCCCCCN)cccc12 [MDC, monodansyl cadaverine]",suppression of nuclear fragmentation (in words),[1]; various concentrations of MDC,Strong suppression
same,sizes of the aggregate bodies (in words),[2]; presence of MDC compared to absence of MDC,smaller
same,frequencies of the cells with aggregate formation (in words),[2]; various concentrations of MDC,no significant changes
NCCSSCCN [cystamine],nuclear fragmentation,"[1]; 1 mM cystamine, 60 hours, 38% without cystamine, P<0.05",24%
same,suppression of nuclear fragmentation (in words),[1]; [4],suppression effects appeared in a dose-dependent manner
same,expression patterns of the fusion protein (in words),[3],did not change
same,frequency of cells retaining a diffuse cytoplasmic expression pattern without aggregate formation,"[2]; 1 mM cystamine, 60 hours after transfection, 32% in absence of cystamine, P<0.01",56%
same,cells with formation of aggregate bodies,"[2]; 1 mM cystamine, cultured for 60 hours, 42% without cystamine, P<0.01",33%
same,suppression of aggregate bodies (in words),[2]; [4],suppression effects appeared in a dose-dependent manner
